The nature of series [1]: (§1) Cytotoxicity against MDCK cells after 72 hrs by MTT assay. As to conditions: dog, MDCK cells; read-out: TC50; call rule not given here. The class given is cell-based, Canis lupus familiaris. (Tetrazolium dyes change colour on reduction, which living cells bring about.)
The subject of series [2] is Influenza A virus H3N2. In words: Antiviral activity against Influenza A virus H3N2 A3/JINGKE/30/95 infected in MDCK cells assessed as inhibition of virus-induced cytopathic effect after 72 hrs. The class given is functional, organism-based. A general note: Protection from cytopathic effect is a common read-out in antiviral testing.
Series [3] relates to MDCK. The series is described as §1. Particulars: dog, mdck, 72 h. The class given is cell-based, Canis lupus familiaris.
Series [4] in a line: Therapeutic index, ratio of TC50 for MDCK cells to IC50 for Influenza A virus H3N2 A3/JINGKE/30/95. The class given is cell-based. As to conditions: dog, read-out: TI.
Setting [5] is: Influenza A virus, A3/JINGKE/30/95, MDCK, 72 h, read-out: IC50.

Consider 22 compounds from ChEMBL document CHEMBL3751821, “The semi-synthesis of novel andrographolide analogues and anti-influenza virus activity evaluation of their derivatives” (Bioorg Med Chem Lett, 2016).

Converted amounts (≈) assume the structure as drawn. Where only a bound is given, the exact number is not on record here.

Usually IC50 stands for the midpoint of a concentration-inhibition curve. `C[C@@]1(CO)[C@H](O)CC[C@@]2(C)C(CCC3=CCOC3=O)=C(Cn3ccc(=O)[nH]c3=O)CC[C@H]12`: the CC50 at 72 h in series [1] is greater than 200 µg/mL. For the same compound, the half-maximal inhibitory concentration (IC50) entry in series [2] (mdck) is listed as “Not Active”.

With `C[C@@]1(CO)[C@H](O)CC[C@@]2(C)C(CCC3=CCOC3=O)=C(CNC34CC5CC(CC(C5)C3)C4)CC[C@H]12`, the CC50 at 72 h in series [1] is greater than 200 µg/mL. The IC50 entry in series [2] (mdck) is “Not Active”.

As for `C[C@]1(CO)[C@H]2CC=C(Cn3ccc(=O)[nH]c3=O)[C@@H](CCC3=CCOC3=O)[C@]2(C)CC[C@H]1O`, the TC50 entry in series [3] is on record as “Non-toxic”. In series [2] (setting [5]), the IC50 was 192 µg/mL (≈ 431 µM).

Take `C[C@]1(CO)[C@H]2CC=C(Cn3ccnc3)[C@@H](CCC3=CCOC3=O)[C@]2(C)CC[C@H]1O`: in series [1], the CC50 at 72 h was 212 µg/mL (≈ 529 µM). Further, the IC50 in series [2] (setting [5]) is 201 µg/mL (≈ 502 µM). Besides, the selectivity ratio in series [4] was 1.05.

Take `C[C@]1(CO)[C@H]2CC=C(Cn3cnc4ncnc(N)c43)[C@@H](CCC3=CCOC3=O)[C@]2(C)CC[C@H]1O`: in series [1], the CC50 at 72 h was 524 µg/mL (≈ 1120 µM). Also, the half-inhibitory concentration (IC50) in series [2] (setting [5]) stood at 192 µg/mL (≈ 411 µM). In addition, the selectivity ratio in series [4] came out at 2.72.

In the case of `C[C@]1(CO)[C@H]2CC=C(Cn3cccn3)[C@@H](CCC3=CCOC3=O)[C@]2(C)CC[C@H]1O`, the CC50 at 72 h in series [1] came out at 122 µg/mL (≈ 305 µM). In series [2] (mdck), the IC50 entry is on record as “Not Active”.

`C[C@]1(CO)[C@H]2CC=C(Cn3cncn3)[C@@H](CCC3=CCOC3=O)[C@]2(C)CC[C@H]1O`: the TC50 entry in series [3] is “Non-toxic”. The 50% inhibitory concentration (IC50) entry in series [2] (mdck) was “Not Active”.

Turning to `C[C@@]1(CO)[C@H](O)CC[C@@]2(C)C(CCC3=CCOC3=O)=C(CN3CCOCC3)CC[C@H]12`, in series [1], the CC50 at 72 h was greater than 200 µg/mL. Besides, the IC50 result in series [2] (mdck) was “Not Active”.

With `C[C@]1(CO)[C@H]2CC=C(Cn3ccc(N)nc3=O)[C@@H](CCC3=CCOC3=O)[C@]2(C)CC[C@H]1O`, the CC50 at 72 h in series [1] worked out at 491 µg/mL (≈ 1110 µM). Besides, in series [2] (setting [5]), the IC50 was 186 µg/mL (≈ 419 µM). The selectivity ratio in series [4] came out at 2.64.

For `C[C@]1(CO)[C@H]2CC=C(CN3CCOCC3)[C@@H](CCC3=CCOC3=O)[C@]2(C)CC[C@H]1O`, the TC50 entry in series [3] is recorded as “Non-toxic”. Also, in series [2] (mdck), the 50% inhibitory concentration (IC50) entry is recorded as “Not Active”.

As to `C[C@]1(CO)[C@H]2CC=C(CNCc3ccccc3)[C@@H](CCC3=CCOC3=O)[C@]2(C)CC[C@H]1O`, the CC50 at 72 h in series [1] was found to be 965 µg/mL (≈ 2190 µM). For the same compound, the concentration for half-maximal inhibition (IC50) in series [2] (setting [5]) is 122 µg/mL (≈ 277 µM). In series [4], the selectivity ratio stood at 7.91.

Take `Cc1cn(CC2=C(CCC3=CCOC3=O)[C@]3(C)CC[C@@H](O)[C@@](C)(CO)[C@H]3CC2)c(=O)[nH]c1=O`: in series [1], the CC50 at 72 h is greater than 200 µg/mL. Moreover, in series [2] (mdck), the concentration for half-maximal inhibition (IC50) entry was “Not Active”.

`C[C@@]1(CO)[C@H](O)CC[C@@]2(C)C(CCC3=CCOC3=O)=C(Cn3cncn3)CC[C@H]12`: the CC50 at 72 h in series [1] was greater than 200 µg/mL. For the same compound, the IC50 result in series [2] (mdck) is recorded as “Not Active”.

Regarding `Cc1cn(CC2=CC[C@@H]3[C@](C)(CO)[C@H](O)CC[C@@]3(C)[C@@H]2CCC2=CCOC2=O)c(=O)[nH]c1=O`, the TC50 result in series [3] was “Non-toxic”. Further, the concentration for half-maximal inhibition (IC50) in series [2] (setting [5]) stood at 201 µg/mL (≈ 438 µM).

Consider `C[C@]1(CO)[C@H]2CC=C(CNC34CC5CC(CC(C5)C3)C4)[C@@H](CCC3=CCOC3=O)[C@]2(C)CC[C@H]1O`, for which the CC50 at 72 h in series [1] came to 2380 µg/mL (≈ 4910 µM). In addition, in series [2] (setting [5]), the IC50 turned out to be 161 µg/mL (≈ 332 µM). In series [4], the selectivity ratio is 14.8.

Regarding `C[C@@]1(CO)[C@H](O)CC[C@@]2(C)C(CCC3=CCOC3=O)=C(Cn3ccnc3)CC[C@H]12`, in series [1], the CC50 at 72 h was greater than 200 µg/mL. In addition, the IC50 result in series [2] (mdck) is reported as “Not Active”.

Take `C[C@@]1(CO)[C@H](O)CC[C@@]2(C)C(CCC3=CCOC3=O)=C(CNCc3ccccc3)CC[C@H]12`: in series [1], the CC50 at 72 h is greater than 200 µg/mL. The IC50 result in series [2] (mdck) is reported as “Not Active”.

For the compound `C[C@@]1(CO)[C@H](O)CC[C@@]2(C)C(CCC3=CCOC3=O)=C(Cn3ccc(N)nc3=O)CC[C@H]12`, in series [1], the CC50 at 72 h is greater than 200 µg/mL. Further, the half-maximal inhibitory concentration (IC50) entry in series [2] (mdck) was “Not Active”.

Consider `C=C1CC[C@@H]2[C@](C)(CO)[C@H](O)CC[C@@]2(C)[C@@H]1CC(C1=CCOC1=O)S(=O)(=O)[O-].[Na+]` (some centres not stated), for which the CC50 at 72 h in series [1] is 2280 µg/mL. The half-inhibitory concentration (IC50) in series [2] (setting [5]) was 176 µg/mL. The selectivity ratio in series [4] was 12.9.

Turning to `C[C@@]12CC[C@@H](O)[C@@](C)(CO)C1CCC(CO)=C2CCC1=CCOC1=O` (single isomer, unassigned), the CC50 at 72 h in series [1] was determined as 124 µg/mL (≈ 355 µM). The IC50 result in series [2] (mdck) was “Not Active”.

Consider `C[C@]1(CO)C2CC=C(CO)[C@@H](CCC3=CCOC3=O)[C@]2(C)CC[C@H]1O` (single isomer, unassigned), for which the CC50 at 72 h in series [1] was determined as 678 µg/mL (≈ 1940 µM). Besides, in series [2] (setting [5]), the concentration for half-maximal inhibition (IC50) worked out at 197 µg/mL (≈ 562 µM). For the same compound, in series [4], the selectivity ratio is 3.44.

For the compound `NC(=O)c1ncn([C@@H]2O[C@H](CO)[C@@H](O)[C@H]2O)n1` [RIBAVIRIN], the CC50 at 72 h in series [1] is 3280 µg/mL (≈ 13400 µM). Further, the half-maximal inhibitory concentration (IC50) in series [2] (setting [5]) worked out at 87.7 µg/mL (≈ 359 µM). For the same compound, the selectivity ratio in series [4] was 37.4.
